Assay results reported in ChEMBL document CHEMBL1201862, “PubChem BioAssay data set” (2004).
Blank lines part the entries; values can stand above or below the compound they belong to. Activity calls are given as the source filed them.

Key:
[1] = target: Cytochrome P450 3A4 (Homo sapiens, UniProt P08684);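 also: CYP3A4 tested as one member of a cytochrome P450 panel screen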
[2] = insulin promoter down-regulators in MIN6 cells, imaging, high-content screening, mouse beta cells (AID 1628); assay type: functional
[3] = cytotoxicity in MIN6 insulinoma cells, dose response, cytotoxicity control, cell-based, mouse insulinoma (AID 2122); assay type: functional;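 also: confirmatory high-throughput counterscreen run to flag cytotoxic compounds; mouse MIN-6 beta cells carrying an insulin promoter eGFP reporter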
[4] = target: SUMO E1/E2 (Homo sapiens, UniProt P63279+Q9UBE0+Q9UBT2); experiment: SAR analysis of SUMOylation using HTRF in an in-Vitro dose response assay. [Related pubchem assays (depositor defined):AID2006, AID2011, AID2018, AID2069, AID2658]; assay type: functional
[5] = system: HEK293; experiment: cells; assay type: functional, cell-based; conditions: Homo sapiens
[6] = system: HEK293; experiment: NOD2 signaling inhibitors in MDP-stimulated cells, cell-based, uHTS, luminescence (AID 2001); assay type: functional; conditions: Homo sapiens
[7] = system: INS1; experiment: beta cell apoptosis inhibitors, cytokine rescue, dose response, luminescence, retest (AID 449756); assay type: functional, cell-based; conditions: Rattus norvegicus;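 also: cell death triggered by IL-1 beta plus TNF-alpha plus IFN-gamma mixture; protective hits raise ATP signal compared with cytokine alone wells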
[8] = system: HEK293; experiment: NOD1 signaling inhibitors, primary screen, cell-based, luminescence, uHTS (AID 1578); assay type: functional; conditions: Homo sapiens
[9] = system: HEK293; experiment: cells; assay type: functional, cell-based; conditions: Homo sapiens; remark: listed apart in the source
[10] = cytotoxicity in HEK-293T cells, dose response, cytotoxicity control for TCR NF-kB inhibitor project, luminescence, T-cell screen hits (AID 489026); assay type: functional, cell-based;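 also: cells exposed to compound about 14 hours before the viability readout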
[11] = target: Peroxisome proliferator-activated receptor gamma/Nuclear receptor coactivator 3 (Homo sapiens, UniProt P37231); experiment: (§1) TR-FRET dose response biochemical High Throughput Screening assay for agonists of the steroid receptor coactivator 3 (SRC-3) recruitment by the peroxisome proliferator-activated receptor gamma (PPAR gamma): non-selective agonists. [Related pubchem assays: 1301 (Confirmation screen.), 1048 (Primary screen.)]; assay type: functional
[12] = target: Peroxisome proliferator-activated receptor gamma/Nuclear receptor coactivator 1 (Homo sapiens, UniProt P37231); experiment: as §1, with “1 (SRC-1)” for “3 (SRC-3)”, “assays (depositor defined):AID1300, AID1808, AID504735, AID631]” for “assays: 1301 (Confirmation screen.), 1048 (Primary screen.)]”; assay type: protein assay
[13] = target: T1, Heat shock factor protein 1 (Mus musculus, UniProt P38532); experiment: HSF1 potentiators in luciferase reporter cells, confirmation, cell-based, NIH3T3, luminescence, dose retest (AID 435004); assay type: functional;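 also: stress induced by proteasome inhibitor MG132 added 30 min after compound; luciferase reporter driven by HSF1 response element in NIH3T3 cells; actives raise luminescence as potentiators of the MG132 stress response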
T1 sequence (P38532 whole entry): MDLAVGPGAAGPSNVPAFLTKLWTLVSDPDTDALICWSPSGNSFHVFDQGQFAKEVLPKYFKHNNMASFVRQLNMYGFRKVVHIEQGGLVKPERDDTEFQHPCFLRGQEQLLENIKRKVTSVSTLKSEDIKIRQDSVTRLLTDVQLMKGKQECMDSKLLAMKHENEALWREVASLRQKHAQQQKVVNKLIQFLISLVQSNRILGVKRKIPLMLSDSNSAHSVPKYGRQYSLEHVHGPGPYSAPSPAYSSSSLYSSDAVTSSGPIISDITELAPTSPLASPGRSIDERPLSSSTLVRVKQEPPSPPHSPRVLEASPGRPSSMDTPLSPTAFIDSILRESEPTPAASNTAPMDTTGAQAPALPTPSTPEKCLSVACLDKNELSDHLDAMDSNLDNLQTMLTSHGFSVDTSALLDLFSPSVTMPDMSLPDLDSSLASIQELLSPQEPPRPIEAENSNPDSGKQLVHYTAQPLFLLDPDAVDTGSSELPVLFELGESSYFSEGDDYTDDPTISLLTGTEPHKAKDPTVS

[14] = target: Peroxisome proliferator-activated receptor gamma/Nuclear receptor coactivator 2 (Homo sapiens, UniProt P37231); experiment: TR-FRET dose response biochemical High Throughput Screening assay for agonists of the steroid receptor coactivator 2 (SRC-2) recruitment by the peroxisome proliferator-activated receptor gamma (PPAR gamma): non-selective agonists. [Related pubchem assays: 1297, 1032 ]; assay type: functional
[15] = target: Cytochrome P450 2D6 (Homo sapiens, UniProt P10635);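 also: CYP2D6 member of a cytochrome P450 panel assay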
[16] = target: T2, Cytochrome P450 1A2 (Homo sapiens, UniProt P05177);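 also: PubChem cytochrome P450 panel assay, CYP1A2 panel member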
T2 sequence (P05177 whole entry): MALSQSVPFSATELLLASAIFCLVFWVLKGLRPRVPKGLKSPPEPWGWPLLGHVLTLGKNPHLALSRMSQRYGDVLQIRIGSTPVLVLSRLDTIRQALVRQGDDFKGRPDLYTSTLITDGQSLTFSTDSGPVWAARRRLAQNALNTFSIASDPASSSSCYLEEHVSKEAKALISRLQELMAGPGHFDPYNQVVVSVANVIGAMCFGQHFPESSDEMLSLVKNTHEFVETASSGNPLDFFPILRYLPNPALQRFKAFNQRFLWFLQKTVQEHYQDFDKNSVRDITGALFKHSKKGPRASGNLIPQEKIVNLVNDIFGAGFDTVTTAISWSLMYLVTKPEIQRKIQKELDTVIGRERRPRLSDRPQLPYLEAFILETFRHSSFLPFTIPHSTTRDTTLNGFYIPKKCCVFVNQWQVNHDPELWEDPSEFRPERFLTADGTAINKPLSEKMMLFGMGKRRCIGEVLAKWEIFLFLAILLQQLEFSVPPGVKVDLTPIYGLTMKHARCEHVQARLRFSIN

Chain of Cytochrome P450 3A4 (P08684 whole entry): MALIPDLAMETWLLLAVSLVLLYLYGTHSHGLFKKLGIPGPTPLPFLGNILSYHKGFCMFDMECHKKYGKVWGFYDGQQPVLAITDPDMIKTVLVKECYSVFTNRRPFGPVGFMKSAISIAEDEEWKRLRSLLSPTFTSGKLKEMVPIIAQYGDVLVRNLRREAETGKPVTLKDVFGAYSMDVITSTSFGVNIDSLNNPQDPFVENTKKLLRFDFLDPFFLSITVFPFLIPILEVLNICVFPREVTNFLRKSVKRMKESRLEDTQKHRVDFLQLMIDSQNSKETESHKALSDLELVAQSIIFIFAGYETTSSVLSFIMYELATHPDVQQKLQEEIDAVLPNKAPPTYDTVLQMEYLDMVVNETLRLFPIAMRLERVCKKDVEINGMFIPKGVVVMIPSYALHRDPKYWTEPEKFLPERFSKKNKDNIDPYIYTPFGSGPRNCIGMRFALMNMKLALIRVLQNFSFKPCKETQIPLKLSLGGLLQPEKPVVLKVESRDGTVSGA
Chain of SUMO E1/E2 (Q9UBE0 whole entry): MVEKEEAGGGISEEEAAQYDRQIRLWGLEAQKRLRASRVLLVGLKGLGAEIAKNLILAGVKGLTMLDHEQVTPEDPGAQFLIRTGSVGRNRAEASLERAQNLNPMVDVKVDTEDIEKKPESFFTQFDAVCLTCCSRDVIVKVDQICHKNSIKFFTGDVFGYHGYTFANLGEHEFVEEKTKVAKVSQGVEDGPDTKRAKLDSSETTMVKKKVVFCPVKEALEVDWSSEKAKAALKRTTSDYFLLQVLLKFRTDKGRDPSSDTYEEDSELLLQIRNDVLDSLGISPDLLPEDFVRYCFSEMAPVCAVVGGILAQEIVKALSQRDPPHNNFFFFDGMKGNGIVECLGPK
Chain of SUMO E1/E2 (Q9UBT2 whole entry): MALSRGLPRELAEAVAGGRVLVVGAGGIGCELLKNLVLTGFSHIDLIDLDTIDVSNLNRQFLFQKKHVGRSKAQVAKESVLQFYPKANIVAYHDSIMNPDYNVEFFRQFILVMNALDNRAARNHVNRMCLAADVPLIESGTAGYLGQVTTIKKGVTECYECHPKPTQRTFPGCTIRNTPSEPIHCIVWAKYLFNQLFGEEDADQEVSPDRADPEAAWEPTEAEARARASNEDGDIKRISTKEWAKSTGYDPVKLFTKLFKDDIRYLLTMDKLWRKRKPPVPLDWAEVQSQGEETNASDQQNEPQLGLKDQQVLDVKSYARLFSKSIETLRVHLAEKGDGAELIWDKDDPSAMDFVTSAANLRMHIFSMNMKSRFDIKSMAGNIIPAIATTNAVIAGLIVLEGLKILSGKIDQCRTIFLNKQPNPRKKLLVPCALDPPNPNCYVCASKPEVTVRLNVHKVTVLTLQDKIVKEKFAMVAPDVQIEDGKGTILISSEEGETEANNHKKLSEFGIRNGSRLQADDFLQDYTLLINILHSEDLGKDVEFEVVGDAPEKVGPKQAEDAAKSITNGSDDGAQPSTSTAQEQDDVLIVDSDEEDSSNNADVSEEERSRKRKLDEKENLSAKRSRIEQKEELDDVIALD
Chain of SUMO E1/E2 (P63279 whole entry): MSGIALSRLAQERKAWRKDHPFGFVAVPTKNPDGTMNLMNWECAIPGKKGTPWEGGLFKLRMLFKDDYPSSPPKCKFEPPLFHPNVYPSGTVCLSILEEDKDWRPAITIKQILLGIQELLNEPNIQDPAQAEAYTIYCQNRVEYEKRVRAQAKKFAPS
Chain of Peroxisome proliferator-activated receptor gamma/Nuclear receptor coactivator 1 (P37231 whole entry): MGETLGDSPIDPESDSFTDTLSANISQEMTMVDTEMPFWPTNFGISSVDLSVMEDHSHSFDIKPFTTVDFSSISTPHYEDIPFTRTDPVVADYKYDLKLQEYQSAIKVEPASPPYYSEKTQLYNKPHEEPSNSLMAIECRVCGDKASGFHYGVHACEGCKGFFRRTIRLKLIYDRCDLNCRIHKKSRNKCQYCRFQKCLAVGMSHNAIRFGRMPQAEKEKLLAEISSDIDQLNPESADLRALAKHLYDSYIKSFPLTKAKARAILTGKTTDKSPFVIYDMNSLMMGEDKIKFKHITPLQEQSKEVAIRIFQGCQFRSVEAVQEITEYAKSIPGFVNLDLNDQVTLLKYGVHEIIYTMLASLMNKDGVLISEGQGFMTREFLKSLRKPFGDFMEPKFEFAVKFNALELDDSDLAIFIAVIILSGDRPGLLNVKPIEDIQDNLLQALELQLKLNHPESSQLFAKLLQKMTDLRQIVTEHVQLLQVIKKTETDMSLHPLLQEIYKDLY
Chain of Peroxisome proliferator-activated receptor gamma/Nuclear receptor coactivator 1 (Q15788 whole entry, further chain): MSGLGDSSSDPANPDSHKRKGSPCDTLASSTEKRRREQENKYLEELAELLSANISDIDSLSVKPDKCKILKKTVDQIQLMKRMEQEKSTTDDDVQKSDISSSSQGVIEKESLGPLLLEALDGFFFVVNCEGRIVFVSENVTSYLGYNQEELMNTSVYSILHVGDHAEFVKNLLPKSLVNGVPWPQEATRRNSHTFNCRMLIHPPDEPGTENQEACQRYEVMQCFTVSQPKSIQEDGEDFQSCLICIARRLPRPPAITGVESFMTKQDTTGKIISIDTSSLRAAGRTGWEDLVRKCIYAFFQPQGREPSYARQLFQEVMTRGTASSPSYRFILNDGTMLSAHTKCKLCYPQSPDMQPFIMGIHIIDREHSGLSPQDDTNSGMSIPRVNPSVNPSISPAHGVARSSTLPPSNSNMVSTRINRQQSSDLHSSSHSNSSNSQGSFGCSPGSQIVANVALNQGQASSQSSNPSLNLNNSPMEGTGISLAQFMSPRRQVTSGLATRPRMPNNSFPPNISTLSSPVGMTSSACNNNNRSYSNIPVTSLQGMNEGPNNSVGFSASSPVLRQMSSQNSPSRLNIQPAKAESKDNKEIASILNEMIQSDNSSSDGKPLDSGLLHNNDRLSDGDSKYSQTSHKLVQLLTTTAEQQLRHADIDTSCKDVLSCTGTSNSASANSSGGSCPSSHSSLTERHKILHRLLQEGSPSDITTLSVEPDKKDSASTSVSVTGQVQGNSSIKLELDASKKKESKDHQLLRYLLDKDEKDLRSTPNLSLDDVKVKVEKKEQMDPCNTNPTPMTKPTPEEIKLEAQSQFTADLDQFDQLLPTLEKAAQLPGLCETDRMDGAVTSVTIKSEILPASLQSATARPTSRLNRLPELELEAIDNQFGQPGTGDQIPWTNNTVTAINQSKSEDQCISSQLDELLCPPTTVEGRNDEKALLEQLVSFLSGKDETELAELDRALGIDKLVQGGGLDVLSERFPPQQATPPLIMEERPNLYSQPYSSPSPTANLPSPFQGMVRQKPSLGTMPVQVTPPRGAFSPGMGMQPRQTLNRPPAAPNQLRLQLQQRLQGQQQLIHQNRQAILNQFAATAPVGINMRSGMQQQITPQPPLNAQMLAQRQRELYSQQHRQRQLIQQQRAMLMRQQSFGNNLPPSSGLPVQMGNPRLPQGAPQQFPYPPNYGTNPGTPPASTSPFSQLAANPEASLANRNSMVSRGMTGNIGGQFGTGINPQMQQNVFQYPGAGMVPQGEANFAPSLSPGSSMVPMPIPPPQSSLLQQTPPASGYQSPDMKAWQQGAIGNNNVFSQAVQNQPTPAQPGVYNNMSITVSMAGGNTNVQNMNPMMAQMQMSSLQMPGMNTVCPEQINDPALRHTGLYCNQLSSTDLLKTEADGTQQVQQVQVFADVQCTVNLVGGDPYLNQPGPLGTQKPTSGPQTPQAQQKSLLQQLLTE
Chain of Cytochrome P450 2D6 (P10635 whole entry): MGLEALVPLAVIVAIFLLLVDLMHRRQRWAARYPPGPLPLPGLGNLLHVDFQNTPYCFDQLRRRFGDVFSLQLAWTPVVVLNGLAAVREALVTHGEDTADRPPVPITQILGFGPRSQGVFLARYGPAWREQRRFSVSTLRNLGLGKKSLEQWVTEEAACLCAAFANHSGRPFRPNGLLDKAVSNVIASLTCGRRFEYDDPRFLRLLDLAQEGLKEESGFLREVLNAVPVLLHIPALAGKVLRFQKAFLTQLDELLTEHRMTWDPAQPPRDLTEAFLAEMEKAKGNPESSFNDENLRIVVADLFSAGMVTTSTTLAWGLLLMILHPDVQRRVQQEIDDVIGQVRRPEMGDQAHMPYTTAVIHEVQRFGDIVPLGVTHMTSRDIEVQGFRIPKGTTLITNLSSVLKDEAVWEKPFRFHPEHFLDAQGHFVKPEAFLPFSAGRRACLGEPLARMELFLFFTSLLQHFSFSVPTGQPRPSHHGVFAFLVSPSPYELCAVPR

AC50 [1]: inconclusive
Compound: COCC(=O)N1CCN(c2ccc([N+](=O)[O-])cc2)CC1

Compound: S=C(NCCC1=CCCCC1)NCc1ccco1
IC50 [2]: 2.95 µM (active)
IC50 [3]: 2.64 µM (active)

IC50 [4]: 22.4 µM (active)
Compound: O=C1c2oc3ccccc3c(=O)c2C(c2ccccc2)N1c1nccs1 (configuration not stated)

Compound: CCn1nc(C)c(CNC(=O)c2ccc(OC3CCN(Cc4ccccn4)CC3)cc2)c1C
IC50 [5]: 4.94 µM (active)
IC50 [6]: 9.64 µM (active)
AC50 [7]: 3.87 µM (active)
EC50 [8]: 2.57 µM (active)
IC50 [9]: 13.8 µM (active)
IC50 [10]: > 80 µM (inactive)

EC50 [11]: > 79.4 µM (not active)
EC50 [12]: > 79.4 µM (inactive)
EC50 [13]: > 260 µM (inactive)
EC50 [14]: > 79.4 µM (not active)
Compound: Cn1c(=O)cc(SCC(=O)N2CCOCC2)c2ccc(Cl)cc21

AC50 [15]: 0.178 µM (inconclusive)
AC50 [16]: 20 µM (inconclusive)
AC50 [1]: inconclusive
Compound: COCCCNC(=O)c1ccc2c(=O)n(CC3CCCO3)c(=S)[nH]c2c1 (configuration not stated)
